Measured values taken from PubChem BioAssay AID1259411 (Chemical Carcinogenesis Research Information System (CCRIS), 2018).
Active and inactive are the calls of the source. How the calls were made is not given here.

Tested on: rodent carcinogenicity bioassays, tumor incidence
Assay: CCRIS carcinogenicity studies
How it was run: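 Archive of carcinogenicity, mutagenicity, tumor promotion and tumor inhibition results drawn from journals, NCI reports and other sources, expert-reviewed; covers 1985-2011 and is no longer updated.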

## OCc1ccn2c1[C@H](O)CC2
Species: MOUSE, Strain/Sex: SWISS/FEMALE, Route: DERMAL/SUBCUTANEOUS, Dose: 0, 20 MG/KG IN 0.2 ML ACETONE TO SHAVED MID-BACK REGION AND 0, 20 MG/KG IN 0.1 ML PHOSPHATE BUFFER TO INTERSCAPULAR REGI, Dose: 0, 20 MG/KG IN 0.2 ML ACETONE TO SHAVED MID-BACK REGION AND 0, 20 MG/KG IN 0.1 ML PHOSPHATE BUFFER TO INTERSCAPULAR REGI, Tumor Site: Type of Lesion: SKIN: BASAL CELL CARCINOMA
  carcinogen call: active; positive
Species: MOUSE, Strain/Sex: SWISS/FEMALE, Route: DERMAL, Dose: 0, 20 MG/KG IN 0.2 ML ACETONE 1/WK FOR 4 WK AFTER 6 MO ANIMALS WITHOUT TUMORS TREATED AGAIN 1/WK FOR 2 WK (STUDY DURATIO, Tumor Site: Type of Lesion: SKIN: BASAL CELL CARCINOMA
  carcinogen call: active; positive
Species: MOUSE, Strain/Sex: SWISS/FEMALE, Route: SUBCUTANEOUS, Dose: 0, 20 MG/KG IN 0.1 ML PHOSPHATE BUFFER 1/WK FOR 4 WK AFTER 6 MO ANIMALS WITHOUT TUMORS TREATED AGAIN 1/WK FOR 2 WK (STUD, Tumor Site: Type of Lesion: SKIN: BASAL CELL CARCINOMA
  carcinogen call: active; positive

## CSC(=O)c1cccc2nnsc12
Species: Mouse, Strain/Sex: Tif:MAGf (SPF) (NIH x MAG hybrid)/Female, Route: Oral (diet), Dose: 0, 10, 100, 2000, 6000 ppm (0; 1.14; 10.8; 234; 696 mg/kg/day) for 18 mo, Dose: 0, 10, 100, 2000, 6000 ppm (0; 1.14; 10.8; 234; 696 mg/kg/day) for 18 mo
  carcinogen call: inactive; negative
Species: Mouse, Strain/Sex: Tif:MAGf (SPF) (NIH x MAG hybrid)/Male, Route: Oral, Dose: 0, 10, 100, 2000, 6000 ppm (0; 1.14; 11.1; 237; 698 mg/kg/day) in feed for 18 mo, Dose: 0, 10, 100, 2000, 6000 ppm (0; 1.14; 11.1; 237; 698 mg/kg/day) in feed for 18 mo
  carcinogen call: inactive; negative
Species: Rat, Strain/Sex: Tif:Ralf (SPF) (Rll/1 x Rll/2 hybrid)/Female, Route: Oral, Dose: 0, 20, 200, 2500, 7500 ppm (0; 0.90; 9.08; 111; 388 mg/kg/day) in feed for 2 yr, Dose: 0, 20, 200, 2500, 7500 ppm (0; 0.90; 9.08; 111; 388 mg/kg/day) in feed for 2 yr
  carcinogen call: inactive; negative
Species: Rat, Strain/Sex: Tif:Ralf (SPF) (Rll/1 x Rll/2 hybrid)/Male, Route: Oral, Dose: 0, 20, 200, 2500, 7500 ppm (0; 0.77; 7.77; 96.9; 312 mg/kg/day) in feed for 2 years, Dose: 0, 20, 200, 2500, 7500 ppm (0; 0.77; 7.77; 96.9; 312 mg/kg/day) in feed for 2 years, Tumor Site: Type of Lesion: Small intestine: Mucinous carcinoma (1/60; 1/59; 2/59 at three highest doses)
  carcinogen call: active; positive; dpr reviewer notes that only 1 case of mucinous carcinoma has been see

## CC=O
Species: RAT, Strain/Sex: WISTAR/FEMALE, Route: INHALATION, Dose: 0, 750, 1500, 3000 PPM 6 HR/D 5 D/WK AFTER 4 MO HIGH DOSE REDUCED TO 2150 PPM THEN 1500 PPM AT 6 MO AND 1000 PPM AT 12 M, Dose: 0, 750, 1500, 3000 PPM 6 HR/D 5 D/WK AFTER 4 MO HIGH DOSE REDUCED TO 2150 PPM THEN 1500 PPM AT 6 MO AND 1000 PPM AT 12 M, Tumor Site: Type of Lesion: NASAL CAVITY: TUMOR
  carcinogen call: active; positive
Species: RAT, Strain/Sex: WISTAR/MALE, Route: INHALATION, Dose: 0, 750, 1500, 3000 PPM 6 HR/D 5 D/WK AFTER 4 MO HIGH DOSE REDUCED TO 2150 PPM THEN 1500 PPM AT 6 MO AND 1000 PPM AT 12 M, Dose: 0, 750, 1500, 3000 PPM 6 HR/D 5 D/WK AFTER 4 MO HIGH DOSE REDUCED TO 2150 PPM THEN 1500 PPM AT 6 MO AND 1000 PPM AT 12 M, Tumor Site: Type of Lesion: NASAL CAVITY: TUMOR
  carcinogen call: active; positive

## [Cd]
Species: HUMAN, Route: INHALATION, ORAL, DERMAL, Tumor Site: Type of Lesion: PROSTATE GLAND
  carcinogen call: active; positive
Species: RAT, Strain/Sex: F344/MALE,FEMALE, Route: INTRAMUSCULAR, Dose: 5 MG GIVEN IN 2 INJECTIONS AT MONTHLY INTERVALS (STUDY DURATION: 12 MO), Tumor Site: Type of Lesion: INJECTION SITE: FIBROSARCOMA
  carcinogen call: active; positive
Species: RAT, Strain/Sex: LONG-EVANS/FEMALE, Route: INTRAMUSCULAR, Dose: 14, 28 MG, Tumor Site: Type of Lesion: INJECTION SITE: RHABDOMYOSARCOMA, FIBROSARCOMA
  carcinogen call: active; positive

## CCCCN(CC)N=O
Species: MOUSE, Strain/Sex: DBA/MALE,FEMALE, Route: ORAL, Dose: 10 MG/KG/D IN DRINKING WATER (TOTAL MEAN DOSE 2360 MG/KG), Tumor Site: Type of Lesion: FORESTOMACH: SQUAMOUS CELL CARCINOMA
  carcinogen call: active; positive
Species: RAT, Strain/Sex: WISTAR/MALE, FEMALE, Route: ORAL, Dose: 0, 10 MG/KG/D FOR 4 WK THEN 5 MG/KG/D FOR DURATION OF STUDY (STUDY DURATION: LIFETIME), Tumor Site: Type of Lesion: ESOPHAGUS: CARCINOMA, PAPILLOMA, PHARYNX: PAPILLOMA, ORAL CAVITY: PAPILLOMA, LIVER: ANGIOSARCOMA, HEPATOCELLULAR CARCINO, Tumor Site: Type of Lesion: ESOPHAGUS: CARCINOMA, PAPILLOMA, PHARYNX: PAPILLOMA, ORAL CAVITY: PAPILLOMA, LIVER: ANGIOSARCOMA, HEPATOCELLULAR CARCINO
  carcinogen call: active; positive

## O=NN1CCCC[C@H]1c1cccnc1
Species: MOUSE, Strain/Sex: STRAIN-A/FEMALE, Route: INTRAPERITONEAL, Dose: 0, 100 UMOL TOTAL DOSE ADMINISTERED IN SUBDOSES 3/WK FOR 7 WK (STUDY DURATION: 37 WK), Tumor Site: Type of Lesion: LUNG: TUMOR
  carcinogen call: active; positive

## O=NN1CCOC1=O
Species: HAMSTER, Strain/Sex: SYRIAN/FEMALE, Route: GAVAGE, Dose: 0, 12 MG/ML ((0.2 ML OF A SOLUTION IN ETHYL ACETATE/CORN OIL (1:2)) 1/WK FOR 30 WK (STUDY DURATION: LIFE SPAN), Tumor Site: Type of Lesion: FORESTOMACH: SQUAMOUS CELL CARCINOMA OR ADENOMA
  carcinogen call: active; positive
Species: RAT, Strain/Sex: F344/FEMALE, Route: INTRAVESICULAR, Dose: 0, 2.4 MG 2/WK FOR 8 WK (STUDY DURATION: LIFETIME), Tumor Site: Type of Lesion: BLADDER: TUMOR
  carcinogen call: active; positive
